According to BindingDB's records for doi:10.1002/cbic.200800712 (University of Basel, 2009):
“And” between values parts separate entries of the source, which are not always exact repeats. Equal values may be shown once.

Tests used:
Cytochrome P450 2A13 = target: T1, Cytochrome P450 2A13 (Homo sapiens, UniProt Q16696); assay: Inhibition Assay; conditions: pH 7.6; 37 °C
T1 sequence (Q16696 whole entry): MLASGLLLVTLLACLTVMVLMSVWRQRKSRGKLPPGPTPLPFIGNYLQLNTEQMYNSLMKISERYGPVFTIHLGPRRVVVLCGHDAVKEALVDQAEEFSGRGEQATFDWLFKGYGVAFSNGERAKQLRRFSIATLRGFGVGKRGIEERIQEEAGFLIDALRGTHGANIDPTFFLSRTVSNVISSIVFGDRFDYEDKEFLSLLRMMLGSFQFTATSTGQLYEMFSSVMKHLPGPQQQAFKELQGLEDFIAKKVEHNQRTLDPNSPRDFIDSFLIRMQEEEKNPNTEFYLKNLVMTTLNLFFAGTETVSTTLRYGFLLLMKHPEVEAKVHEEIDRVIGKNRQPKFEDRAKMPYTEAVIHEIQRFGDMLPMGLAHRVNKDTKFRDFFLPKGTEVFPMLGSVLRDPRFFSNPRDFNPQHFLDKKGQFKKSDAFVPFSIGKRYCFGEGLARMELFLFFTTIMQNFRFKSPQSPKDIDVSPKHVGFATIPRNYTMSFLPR
Text: (§1) Inhibition assay using cytochrome P450 enzyme CYP2A6 and CYP2A13.

Cytochrome P450 2A6 = target: T2, Cytochrome P450 2A6 (Homo sapiens, UniProt P11509); assay: Inhibition Assay; conditions: pH 7.6; 37 °C
T2 sequence (P11509 whole entry): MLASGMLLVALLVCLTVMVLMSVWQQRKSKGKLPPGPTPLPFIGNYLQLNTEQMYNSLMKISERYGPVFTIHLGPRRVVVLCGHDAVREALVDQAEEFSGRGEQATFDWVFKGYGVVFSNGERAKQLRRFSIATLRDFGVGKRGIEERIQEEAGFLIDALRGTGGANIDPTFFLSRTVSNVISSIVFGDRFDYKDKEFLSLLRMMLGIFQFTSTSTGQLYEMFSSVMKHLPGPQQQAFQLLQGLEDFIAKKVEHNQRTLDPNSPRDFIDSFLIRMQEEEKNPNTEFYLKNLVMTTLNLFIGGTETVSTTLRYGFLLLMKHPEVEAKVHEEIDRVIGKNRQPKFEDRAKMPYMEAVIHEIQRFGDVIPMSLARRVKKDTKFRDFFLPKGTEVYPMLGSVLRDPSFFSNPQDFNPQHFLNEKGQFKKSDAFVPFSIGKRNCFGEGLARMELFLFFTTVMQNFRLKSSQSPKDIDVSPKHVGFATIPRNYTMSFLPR
Text: as §1

## c1cn(CC2CC2)cn1
Cytochrome P450 2A13
  IC50: 148 µM
Cytochrome P450 2A6
  IC50: 54 µM

## O=C(O)CCCCn1ccnc1
Cytochrome P450 2A13
  IC50: 82 µM
Cytochrome P450 2A6
  IC50: 178 µM

## CCCn1ccnc1 [1-Subsituted 1H-imidazole, 1]
Cytochrome P450 2A13
  IC50: > 300 µM
Cytochrome P450 2A6
  IC50: > 300 µM

## CCCCn1ccnc1 [1-Subsituted 1H-imidazole, 2]
Cytochrome P450 2A13
  IC50: 44 µM
Cytochrome P450 2A6
  IC50: 8.6 µM

## CCCCCn1ccnc1 [1-Subsituted 1H-imidazole, 3]
Cytochrome P450 2A13
  IC50: 4.3 µM
Cytochrome P450 2A6
  IC50: 2.1 µM

## CCCCCCn1ccnc1 [1-Subsituted 1H-imidazole, 4]
Cytochrome P450 2A6
  IC50: 2.7 µM

## CCCCCCCn1ccnc1 [1-Subsituted 1H-imidazole, 5]
Cytochrome P450 2A13
  IC50: 3.1 µM
Cytochrome P450 2A6
  IC50: 11 µM

## CC(C)CCn1ccnc1 [1-Subsituted 1H-imidazole, 7]
Cytochrome P450 2A6
  IC50: 3.1 µM

## CC(C)=CCn1ccnc1 [1-Subsituted 1H-imidazole, 9]
Cytochrome P450 2A6
  IC50: 7.7 µM

## CC/C=C/Cn1ccnc1 [1-Subsituted 1H-imidazole, 10]
Cytochrome P450 2A13
  IC50: 11.4 µM
Cytochrome P450 2A6
  IC50: 6.7 µM

## CC/C=C/CCn1ccnc1 [1-Subsituted 1H-imidazole, 12]
Cytochrome P450 2A13
  IC50: 5.5 µM
Cytochrome P450 2A6
  IC50: 7.1 µM and 11.5 µM

## C=CCCCCn1ccnc1 [1-Subsituted 1H-imidazole, 13]
Cytochrome P450 2A13
  IC50: 2.4 µM
Cytochrome P450 2A6
  IC50: 1.4 µM

## CC(C)=CCC/C(C)=C\Cn1ccnc1 [1-Subsituted 1H-imidazole, 14]
Cytochrome P450 2A13
  IC50: 5.7 µM
Cytochrome P450 2A6
  IC50: 5.7 µM

## CC#CCn1ccnc1 [1-Subsituted 1H-imidazole, 15]
Cytochrome P450 2A13
  IC50: 235 µM
Cytochrome P450 2A6
  IC50: 64 µM

## CCOC(=O)CCn1ccnc1 [1-Subsituted 1H-imidazole, 17]
Cytochrome P450 2A13
  IC50: 238 µM
Cytochrome P450 2A6
  IC50: > 300 µM

## CCOC(=O)CCCn1ccnc1 [1-Subsituted 1H-imidazole, 18]
Cytochrome P450 2A13
  IC50: 123 µM
Cytochrome P450 2A6
  IC50: > 300 µM

## OCCCCn1ccnc1 [1-Subsituted 1H-imidazole, 19]
Cytochrome P450 2A13
  IC50: > 300 µM
Cytochrome P450 2A6
  IC50: > 300 µM

## OCCCCCn1ccnc1 [1-Subsituted 1H-imidazole, 20]
Cytochrome P450 2A13
  IC50: > 300 µM
Cytochrome P450 2A6
  IC50: 122 µM

## N#CCCCCn1ccnc1 [1-Subsituted 1H-imidazole, 22]
Cytochrome P450 2A13
  IC50: 19.1 µM
Cytochrome P450 2A6
  IC50: 22.4 µM

## C=Cn1ccnc1 [1-ethenyl-1H-imidazole]
Cytochrome P450 2A13
  IC50: > 300 µM
Cytochrome P450 2A6
  IC50: > 300 µM

## CC(C)=CCCC(C)Cc1ncc[nH]1 (centres undefined) [2-Subsituted 1H-imidazole, 26]
Cytochrome P450 2A13
  IC50: 247 µM
Cytochrome P450 2A6
  IC50: > 300 µM

## CCCCCCCCCc1ncc[nH]1 [2-Subsituted 1H-imidazole, 27]
Cytochrome P450 2A13
  IC50: 277 µM
Cytochrome P450 2A6
  IC50: > 300 µM

## CC/C=C/Cc1ncc[nH]1 [2-Subsituted 1H-imidazole, 28]
Cytochrome P450 2A13
  IC50: 143 µM
Cytochrome P450 2A6
  IC50: > 300 µM

## COc1ccc(-c2ncco2)cc1 [2-Subsituted oxazole, 29]
Cytochrome P450 2A13
  IC50: 49 µM
Cytochrome P450 2A6
  IC50: 302 µM

## CCCCCCCCCc1ncco1 [2-Subsituted oxazole, 30]
Cytochrome P450 2A13
  IC50: > 300 µM
Cytochrome P450 2A6
  IC50: > 300 µM

## COc1ccc(C2=NCCO2)cc1 [2-Subsituted oxazoline, 31]
Cytochrome P450 2A13
  IC50: > 300 µM
Cytochrome P450 2A6
  IC50: > 300 µM
